Test results as given in the supplement of paper PMC11061612.

Columns and labels:
[1] = system: ME-180 (Cervical Carcinoma); test: combination Emax (second highest fraction inhibited in the dose matrix, 72 h); higher = more inhibition; extreme values may be limits of the assay
Summary of the method: (§1)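 Cell lines grown in DMEM/F12 or RPMI with 10% FBS were plated in 1536-well plates and held 24 hours at 37°C, 5% CO2 before 72 hours of exposure to two-drug dose matrices, with DMSO typically at 0.2%. CellTiter-Glo 2.0 luminescence gave viability, which was converted to inhibition. Vehicle wells were set to 0 and blank wells to 1. Combination Emax is the second-highest inhibition in the matrix, and Bliss excess is the observed combination effect minus the expected EA + EB − EA·EB, where EA and EB are the single-agent effects.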

[2] = system: NCI-H522 (Lung Adenocarcinoma); test: as above
Summary of the method: as §1

SK-N-AS (Neuroblastoma) [3] = test: as above
Summary of the method: as §1

[4] = system: NCI-H1993 (Lung Adenocarcinoma); test: as above
Summary of the method: as §1

[5] = system: MOLT-4 (T-Lymphoblastic Leukemia); test: as above
Summary of the method: as §1

[6] = system: KMRC-1 (Kidney Carcinoma); test: as above
Summary of the method: as §1

[7] = system: EFO-21 (Ovarian Carcinoma); test: as above
Summary of the method: as §1

[8] = system: Mo-T (Other Blood Carcinomas); test: as above
Summary of the method: as §1

[9] = system: MOG-G-UVW (Low Grade Glioma); test: as above
Summary of the method: as §1

[10] = system: SW872 (Other Solid Carcinomas); test: as above
Summary of the method: as §1

[11] = system: SKN (Other Solid Carcinomas); test: as above
Summary of the method: as §1

[12] = system: MDA-MB-453 (Breast Carcinoma); test: as above
Summary of the method: as §1

[13] = system: KGN (Other Solid Carcinomas); test: as above
Summary of the method: as §1

[14] = system: NCI-H1355 (Lung Adenocarcinoma); test: as above
Summary of the method: as §1

[15] = system: A4-Fuk (B-Lymphoblastic Leukemia); test: as above
Summary of the method: as §1

[16] = system: ME-180 (Cervical Carcinoma); test: Bliss excess, mean over the matrix (fraction); higher = more synergy
Summary of the method: as §1

[17] = system: NCI-H522 (Lung Adenocarcinoma); test: as above
Summary of the method: as §1

SK-N-AS (Neuroblastoma) [18] = test: as above
Summary of the method: as §1

[19] = system: SNU-387 (Hepatocellular Carcinoma); test: as above
Summary of the method: as §1

[20] = system: KGN (Other Solid Carcinomas); test: as above
Summary of the method: as §1
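Throughout, for Bliss excess, mean over the matrix: after 72 h of two-drug dosing.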

Structure (SMILES)	combination Emax [1]	combination Emax [2]	combination Emax (SK-N-AS (Neuroblastoma) [3])	combination Emax [4]	combination Emax [5]	combination Emax [6]	combination Emax [7]	combination Emax [8]	combination Emax [9]	combination Emax [10]	combination Emax [11]	combination Emax [12]	combination Emax [13]	combination Emax [14]	combination Emax [15]	Bliss excess [16]	Bliss excess [17]	Bliss excess (SK-N-AS (Neuroblastoma) [18])	Bliss excess [19]	Bliss excess [20]
CN(CCO)CC[C@H](CSc1ccccc1)Nc1ccc(S(=O)(=O)NC(=O)c2ccc(N3CCC([C@@H](O)c4ccccc4-c4ccc(Cl)cc4)CC3)cc2)cc1S(=O)(=O)C(F)(F)F [AZD4320] + C1CN(CCC1(C(=O)N[C@@H](CCO)C2=CC=C(C=C2)Cl)N)C3=NC=NC4=C3C=CN4 [Capivasertib] (first compound max 1 µM, 7x7, partner max 3 µM)	0.507	0.049	0.172	0.791	1	0.51	0.168	0.697	0.355	0.166	0.401	0.596	0.323	0.239	0.683	-0.0238	-0.034	-0.0397	-0.0399	-0.0839
CN(CCO)CC[C@H](CSc1ccccc1)Nc1ccc(S(=O)(=O)NC(=O)c2ccc(N3CCC([C@@H](O)c4ccccc4-c4ccc(Cl)cc4)CC3)cc2)cc1S(=O)(=O)C(F)(F)F [AZD4320] + CC(=O)O[C@H]1C(=O)[C@@]2(C)[C@H]([C@H](OC(=O)c3ccccc3)[C@]3(O)C[C@H](OC(=O)[C@H](O)[C@@H](NC(=O)c4ccccc4)c4ccccc4)C(C)=C1C3(C)C)[C@]1(OC(C)=O)CO[C@@H]1C[C@@H]2O [Paclitaxel] (first compound max 1 µM, 7x7, partner max 3 µM)	1	0.882	0.884	0.984	1	0.733	0.714	1	0.993	0.95	0.978	0.901	0.99	0.984	0.97	0.139	0.0246	0.0584	0.0767	0.0039
CN(CCO)CC[C@H](CSc1ccccc1)Nc1ccc(S(=O)(=O)NC(=O)c2ccc(N3CCC([C@@H](O)c4ccccc4-c4ccc(Cl)cc4)CC3)cc2)cc1S(=O)(=O)C(F)(F)F [AZD4320] + CCN(CCO)CCCOc1ccc2c(Nc3cc(CC(=O)Nc4cccc(F)c4)[nH]n3)ncnc2c1 [AZD2811] (first compound max 1 µM, 7x7, partner max 1 µM)	0.624	0.105	0.391	0.704	1	0.144	0.196	0.768	0.509	0.142	0.613	0.324	0.497	0.239	0.417	0.0343	-0.0471	-0.0041	-0.0127	-0.0739
CN(CCO)CC[C@H](CSc1ccccc1)Nc1ccc(S(=O)(=O)NC(=O)c2ccc(N3CCC([C@@H](O)c4ccccc4-c4ccc(Cl)cc4)CC3)cc2)cc1S(=O)(=O)C(F)(F)F [AZD4320] + C[C@@H]1COCCN1C2=NC(=NC(=C2)C3(CC3)[S@](=N)(=O)C)C4=C5C=CNC5=NC=C4 [AZD6738] (first compound max 1 µM, 7x7, partner max 10 µM)	0.564	0.156	0.949	0.766	1	0.656	0.433	0.937	0.794	0.624	0.663	0.803	0.874	0.77	0.715	0.0005	-0.0555	-0.0421	-0.0443	-0.0198
CN(CCO)CC[C@H](CSc1ccccc1)Nc1ccc(S(=O)(=O)NC(=O)c2ccc(N3CCC([C@@H](O)c4ccccc4-c4ccc(Cl)cc4)CC3)cc2)cc1S(=O)(=O)C(F)(F)F [AZD4320] + C[C@@H](Nc1cc(F)cc(F)c1)c1cc(C(=O)N(C)C)cc2c(=O)cc(N3CCOCC3)oc12 [AZD8186] (first compound max 1 µM, 7x7, partner max 3 µM)	0.338	0.213	0.406	0.874	0.982	0.771	0.381	0.989	0.727	0.293	0.634	0.48	0.493	0.34	0.373	-0.0137	-0.0481	0.0214	0.0168	0.0014
CN(CCO)CC[C@H](CSc1ccccc1)Nc1ccc(S(=O)(=O)NC(=O)c2ccc(N3CCC([C@@H](O)c4ccccc4-c4ccc(Cl)cc4)CC3)cc2)cc1S(=O)(=O)C(F)(F)F [AZD4320] + Cc1cc2ncnn2cc1Nc1ncc2c(n1)n(C1CCOCC1)c(=O)n2C [AZD7648] (first compound max 1 µM, 7x7, partner max 10 µM)	0.26	0.0447	0.182	0.785	0.98	0.222	0.224	0.578	0.191	0.113	0.15	0.285	0.437	0.269	0.619	-0.007	-0.0351	-0.0399	-0.041	-0.103
CN(CCO)CC[C@H](CSc1ccccc1)Nc1ccc(S(=O)(=O)NC(=O)c2ccc(N3CCC([C@@H](O)c4ccccc4-c4ccc(Cl)cc4)CC3)cc2)cc1S(=O)(=O)C(F)(F)F [AZD4320] + Cn1cnc2c(F)c(Nc3ccc(Br)cc3Cl)c(C(=O)NOCCO)cc21 [Selumetinib] (first compound max 1 µM, 7x7, partner max 3 µM)	0.333	0.301	0.776	0.935	0.993	0.253	0.322	0.996	0.593	0.21	0.454	0.331	0.34	0.368	0.456	0.0771	-0.0181	-0.0204	0.0149	0.0113
CN(CCO)CC[C@H](CSc1ccccc1)Nc1ccc(S(=O)(=O)NC(=O)c2ccc(N3CCC([C@@H](O)c4ccccc4-c4ccc(Cl)cc4)CC3)cc2)cc1S(=O)(=O)C(F)(F)F [AZD4320] + Nc1ccn([C@@H]2O[C@H](CO)[C@@H](O)C2(F)F)c(=O)n1 [Gemcitabine] (first compound max 1 µM, 7x7, partner max 0.3 µM)	0.878	0.224	0.672	0.937	1	0.902	0.473	0.997	0.821	0.929	0.783	0.731		0.406	0.914	-0.0249	-0.0645	0.0011	-0.0646	-0.0204
Cc1c2c(nn1C)CSCc1cc(n(C)n1)CSc1cc(c3ccccc3c1)OCCCc1c(C(=O)O)n(C)c3c-2c(Cl)ccc13 [AZD5991] + Cn1cnc2c(F)c(Nc3ccc(Br)cc3Cl)c(C(=O)NOCCO)cc21 [Selumetinib] (first compound max 1 µM, 7x7, partner max 3 µM)	0.26	0.409	0.876	0.511	0.339	0.197	0.36	0.296	0.302	0.288		0.289	0.299	0.316	1	-0.0192	-0.0194	-0.0277	0.064	-0.0338
Cc1cc2ncnn2cc1Nc1ncc2c(n1)n(C1CCOCC1)c(=O)n2C [AZD7648] + C=CCn1c(=O)c2cnc(Nc3ccc(N4CCN(C)CC4)cc3)nc2n1-c1cccc(C(C)(C)O)n1 [AZD1775] (first compound max 10 µM, partner max 1 µM)	0.529	0.373	0.949	0.635	1	0.307	0.511	0.52	0.779	0.384	0.38	0.347	0.833	0.672	0.861	-0.0378	0.0181	0.0212	-0.123	-0.0266
N#Cc1cnc(Nc2cc(NC[C@H]3CNCCO3)c(C(F)(F)F)cn2)cn1 [SRA737] + Nc1ccn([C@@H]2O[C@H](CO)[C@@H](O)C2(F)F)c(=O)n1 [Gemcitabine] (first compound max 10 µM, 7x7, partner max 0.3 µM)	0.9	0.855	0.712	0.939	1	0.733	0.585	0.737	0.986	0.905	0.729	0.542	0.947	0.644	0.976		0.102	-0.0283	0.102	0.0342
N#Cc1cnc(Nc2cc(NC[C@H]3CNCCO3)c(C(F)(F)F)cn2)cn1 [SRA737] + O=c1[nH]cc(F)c(=O)[nH]1 [5-Fluorouracil] (first compound max 10 µM, 7x7, partner max 20 µM)	0.564	0.0376	0.565	0.76	1	0.543	0.313	0.544	0.558		0.361	0.534	0.572	0.517	0.905	0.0272	-0.0524	-0.0291	0.0472	0.002
